Data taken from US11565998B2, “Succinate prodrug, compositions containing the succinate prodrug and uses thereof” (ABLIVA AB, priority 2019, dated 2023).

What was measured:
[1] = Aqueous formulations of Compound 1 (water, PBS, saline), concentration by HPLC; format: physicochemical; conditions: thermodynamic from solid
[2] = Carbonate instability (calcium and carbonate sources); format: physicochemical; conditions: for Percentage of Compound 1 remaining compared to T = 0: 1 mg/ml
Method: Compound 1 Batch 14 (2-3 mg) was dissolved in HPLC grade water at room temperature (1 mg/ml) containing different sources of calcium and carbonate ions (two concentrations for each source, with the pH recorded) and samples were taken at different time intervals for HPLC analysis.
Calcium and carbonate sources used in the form of inorganic salts: […]

[3] = Solubility in aqueous formulations in comparison to other succinate prodrugs; format: physicochemical; conditions: thermodynamic from solid
Method: Solubility of Compound 1 in aqueous formulations in comparison to other succinate prodrugs was assessed by dissolving solid material in aqueous formulations and measuring the quantity in solution by HPLC (−MS). […] In many cases the max solubility of other prodrugs was lower than 100 uM. See Table 21 for example solubility data in PBS pH7.4 for other succinate prodrugs.

[4] = system: microsomes (Sekisui XenoTech); assay: Succinate release on incubation with microsomes (LCMS); format: in vitro ADME; conditions: for Compound 1 detected by LCMS: microsomes 0.5 mg/mL, NADPH, malonate
Method: In brief, a stock of Compound 1 Batch 12 was prepared in 50/50 DMSO/MeCN (200 mM, ×200). This mixture was then diluted 1 in 10 into microsome buffer (20 mM, ×20) consisting of K2HPO4 (Sigma Aldrich, 13.9 g/L, anhydrous), KH2PO4 (Sigma Aldrich, 2.72 g/L, anhydrous), MgCl2.6H2O (Fisher, 1.02 g/L) and EDTA (Sigma Aldrich, 0.375 g/L) dissolved in HPLC grade water. A 200 mM malonic acid (Sigma Aldrich) stock was then prepared in microsome buffer (200 mM, ×20). A 20 mM NADPH stock was also prepared in microsome buffer (20 mM, ×10). A stock of microsomes (Sekisui XenoTech, 0.625 mg/ml) was prepared in a 7 ml vial. Samples were prepared for each timepoint (T=0, 5, 15, 60 mins) as follows: 80 μL microsome stock (0.5 mg/mL final concentration), 5 μL of Compound stock ([…]), 5 μL of malonate stock (10 mM final concentration). The T=0 sample was quenched by adding 100 μL MeOH. Reaction of all timepoints was then initiated with addition of 10 μL NADPH stock (2 mM final concentration). At each timepoint, the reaction was terminated by the addition of 100 μL MeOH. Samples were shaken for 1 min, placed on ice for 10 min, then centrifuged at 3000 rpm for 10 minutes. The supernatant was then analysed by LCMS.

[5] = In vivo pharmacokinetic studies

**Q.** What does the source list for `COC(=O)CCC(=O)SCCNC(C)=O` [Compound 1, Methyl 3-[(2-acetylaminoethylthio)carbonyl]propionate]?
**A.** solubility ([1]; aqueous buffer, pH 7.4, aqueous media tested, room temperature (20-25° C.), read-out: aqueous solubility): ≥ 300 mg/mL; solubility ([1]; water and aqueous systems, water, read-out: solubility): > 500 mg/mL; solubility ([1]; water and aqueous systems, water, read-out: solubility (molar equivalent)): ~2100 mM; Percentage of Compound 1 remaining compared to T = 0 ([2]; (NH4)2CO3 (3.4 mM, pH 8.9), batch 14, day 0): 100%; Percentage of Compound 1 remaining compared to T = 0 ([2]; (NH4)2CO3 (3.4 mM, pH 8.9), batch 14, day 3): 99.6%; Percentage of Compound 1 remaining compared to T = 0 ([2]; (NH4)2CO3 (3.4 mM, pH 8.9), batch 14, day 17): 85.5%; Percentage of Compound 1 remaining compared to T = 0 ([2]; (NH4)2CO3 (3.4 mM, pH 9.3), batch 14, day 0): 100%; Percentage of Compound 1 remaining compared to T = 0 ([2]; (NH4)2CO3 (3.4 mM, pH 9.3), batch 14, day 3): 98.9%; Percentage of Compound 1 remaining compared to T = 0 ([2]; (NH4)2CO3 (3.4 mM, pH 9.3), batch 14, day 17): 57.5%; Percentage of Compound 1 remaining compared to T = 0 ([2]; Ca(NO3)2 (0.34 mM, pH 7.3), batch 14, day 0): 100%; Percentage of Compound 1 remaining compared to T = 0 ([2]; Ca(NO3)2 (0.34 mM, pH 7.3), batch 14, day 3): 101%; Percentage of Compound 1 remaining compared to T = 0 ([2]; Ca(NO3)2 (0.34 mM, pH 7.3), batch 14, day 17): 97.5%; Percentage of Compound 1 remaining compared to T = 0 ([2]; Ca(NO3)2 (3.4 mM, pH 7.2), batch 14, day 0): 100%; Percentage of Compound 1 remaining compared to T = 0 ([2]; Ca(NO3)2 (3.4 mM, pH 7.2), batch 14, day 3): 100%; Percentage of Compound 1 remaining compared to T = 0 ([2]; Ca(NO3)2 (3.4 mM, pH 7.2), batch 14, day 17): 97.1%; Percentage of Compound 1 remaining compared to T = 0 ([2]; CaCO3 (0.34 mM, pH 7.6), batch 14, day 0): 100%; Percentage of Compound 1 remaining compared to T = 0 ([2]; CaCO3 (0.34 mM, pH 7.6), batch 14, day 3): 93.8%; Percentage of Compound 1 remaining compared to T = 0 ([2]; CaCO3 (0.34 mM, pH 7.6), batch 14, day 17): 50.4%; Percentage of Compound 1 remaining compared to T = 0 ([2]; CaCO3 (3.4 mM, pH 7.6), batch 14, day 0): 100%; Percentage of Compound 1 remaining compared to T = 0 ([2]; CaCO3 (3.4 mM, pH 7.6), batch 14, day 3): 93.6%; Percentage of Compound 1 remaining compared to T = 0 ([2]; CaCO3 (3.4 mM, pH 7.6), batch 14, day 17): 49.5%; Percentage of Compound 1 remaining compared to T = 0 ([2]; CaCl2 (0.34 mM, pH 7.4), batch 14, day 0): 100%; Percentage of Compound 1 remaining compared to T = 0 ([2]; CaCl2 (0.34 mM, pH 7.4), batch 14, day 3): 98.4%; Percentage of Compound 1 remaining compared to T = 0 ([2]; CaCl2 (0.34 mM, pH 7.4), batch 14, day 17): 95.1%; Percentage of Compound 1 remaining compared to T = 0 ([2]; CaCl2 (3.4 mM, pH 7.5), batch 14, day 0): 100%; Percentage of Compound 1 remaining compared to T = 0 ([2]; CaCl2 (3.4 mM, pH 7.5), batch 14, day 3): 101%; Percentage of Compound 1 remaining compared to T = 0 ([2]; CaCl2 (3.4 mM, pH 7.5), batch 14, day 17): 96.7%; Percentage of Compound 1 remaining compared to T = 0 ([2]; HPLC water (control, pH 6.5), batch 14, day 0): 100%; Percentage of Compound 1 remaining compared to T = 0 ([2]; HPLC water (control, pH 6.5), batch 14, day 3): 94.3%; Percentage of Compound 1 remaining compared to T = 0 ([2]; HPLC water (control, pH 6.5), batch 14, day 17): 91.4%; degradation in aqueous solution with carbonate ions ([2]; vs calcium chloride / nitrate and control): degrades more rapidly; solubility ([3]; 0.9% saline, saline or isotonic): > 500 mg/mL; solubility ([3]; aqueous buffer, PBS (pH 7.4)): 190 mg/mL; solubility ([3]; pH 7.4, aqueous buffer, PBS pH7.4): > 0.1 mM; solubility ([3]; water): > 350 mg/mL; succinic acid release ([4]; incubated with microsomes): releases succinic acid over time; Compound 1 detected by LCMS ([4]; batch 12, 0 min): 0.934 mM; Compound 1 detected by LCMS ([4]; batch 12, 5 min): 0.688 mM; Compound 1 detected by LCMS ([4]; batch 12, 15 min): 0.388 mM; Compound 1 detected by LCMS ([4]; batch 12, 60 min): 0.080 mM; brain penetration [5]: brain penetrant; oral bioavailability [5]: high oral bioavailability
